Source: patent publication US20220351806A1, “Biomarker Panels for Guiding Dysregulated Host Response Therapy” (Endpoint Health Inc., priority 2019, published 2022)

Test system: sepsis patients
Test: VANISH trial survival analysis, hydrocortisone vs placebo, by patient subtype classifier
Assay type: in vivo, human
Design: mortality reduction in the placebo group in comparison to the hydrocortisone group / Mortality rate: concentration or dose not given beside the values
Settings: for Mortality reduction: Hydro vs Placebo; for hydro_alive / hydro_dead / mr: SS.B2 Model; for mr: 28-day mortality reduction hydro vs placebo; for Alive / Dead / Mortality rate / Survival rate: Hydro group
Source text: The test expression data from each trial were normalized by the platform normalization matrix described above^13 so that the test data were more consistent with the training data. The classifiers (e.g., the Full Model, the SS Model, the S Model, and the P Model) were then applied to the normalized data such that the patients were classified into A, B, and C subtypes. […] Therefore, each sample in the target samples was normalized independently with the normalization matrix of the sample array platform.
Survival and mortality rates were calculated at day 28 because survival and mortality labels at other time points were not available. […] Binomial and Chi-squared with continuity correction tests were used to test for the significance of these differences.
In one example, previously identified subtypes of sepsis patients were used to tune the model to identify these type A and B patients. Two distinct sepsis response signatures (SRS1 and SRS2) were identified in five public studies (E-MTAB-4421, E-MTAB-4451, E-MTAB-5273, E-MTAB-5274, and E-MTAB-7581), where HumanHT-12 v4 BeadChip were used to generate the gene expression profiles of the patient samples. The processed data of those five studies were downloaded and processed using R programming language and software environment for statistical analysis (version 3.6.3). The Bioconductor annotation package, illuminaHumanv4.db (version 1.26.0), was used to annotate microarray probes and expression levels of genes were determined by each individual probe or mean of probes belonging to the same gene. In order to remove cohort biases, the Bioconductor package, limma (version 3.42.2), was used to remove batch effects. Using ss.b2 panel genes, subtype A, B, and C scores were calculated by geometric mean of up/down genes.
To build the classifier, we defined E-MTAB-4421, E-MTAB-4451, E-MTAB-5273, and E-MTAB-5274 as the training dataset and VANISH (E-MTAB-7581) as the testing dataset. We used features (subtype A, B, and C scores) and class labels (SRS1 vs SRS2) in the training dataset to build a machine-learned classifier based on support-vector machine (SVM) method. SVM is a supervised machine learning method for classification analysis. The algorithm finds a single or a set of hyperplanes that maximize the margin among subtype A, B, and C scores. In order to capture non-linear data, the kernel function was used. R package e1071 was used to build the SVM classifier with following parameters: method=“C-classification”, kernal=“radial”, gamma=0.1, and cost=10.
The accuracy of the classifiers was evaluated by Leave-One-Out (LOO) cross-validation over the training dataset. Also the classifier was applied to 117 controlled samples from VANISH trial.
In addition to the SVM-method, thresholds can be employed to scores in order to define A vs. B labels. […] Therefore we applied a heuristic threshold (threshold=0) to subtype A and B scores to classify SRS1-like and SRS2-like in VANISH: SRS2-like label was assigned to samples with subtype A score >0 and subtype B score <0 and SRS1-like label was assigned to the rest of samples.
Besides the heuristic threshold, we also derived the thresholds for subtype A and B scores using the training dataset. Same as the SVM method, we defined E-MTAB-4421, E-MTAB-4451, E-MTAB-5273, and E-MTAB-5274 as the training dataset and VANISH (E-MTAB-7581) as the testing dataset.

[1] = class A, A score cutoff 0.0000, B score cutoff 0.0000, accuracy in training set 0.74830, 76.07% of patients
[2] = class A, A score cutoff 0.0000, B score cutoff 0.0000, accuracy in training set 0.74830, 76.92% of patients
[3] = class A, A score cutoff 0.0000, B score cutoff 0.0000, accuracy in training set 0.75283, 76.92% of patients
[4] = class A, A score cutoff 0.0000, B score cutoff 0.0000, accuracy in training set 0.75283, 82.91% of patients
[5] = class A, A score cutoff 0.0000, B score cutoff 0.0000, accuracy in training set 0.76871, 62.39% of patients
[6] = class A, A score cutoff 0.0000, B score cutoff 0.0000, accuracy in training set 0.76871, 76.92% of patients
[7] = class A, A score cutoff −0.0406, B score cutoff 0.1067, accuracy in training set 0.79592, 58.12% of patients
[8] = class A, A score cutoff −0.0406, B score cutoff 0.1067, accuracy in training set 0.79592, 74.36% of patients
[9] = class A, A score cutoff −0.1277, B score cutoff 0.3630, accuracy in training set 0.83673, 60.68% of patients
[10] = class A, A score cutoff −0.1277, B score cutoff 0.3630, accuracy in training set 0.83673, 70.09% of patients
[11] = class A, A score cutoff −0.2664, B score cutoff 0.3179, accuracy in training set 0.82483, 58.12% of patients
[12] = class A, A score cutoff −0.2664, B score cutoff 0.3179, accuracy in training set 0.82483, 60.68% of patients
[13] = class B, A score cutoff 0.0000, B score cutoff 0.0000, accuracy in training set 0.74830, 23.08% of patients
[14] = class B, A score cutoff 0.0000, B score cutoff 0.0000, accuracy in training set 0.74830, 23.93% of patients
[15] = class B, A score cutoff 0.0000, B score cutoff 0.0000, accuracy in training set 0.75283, 17.09% of patients
[16] = class B, A score cutoff 0.0000, B score cutoff 0.0000, accuracy in training set 0.75283, 23.08% of patients
[17] = class B, A score cutoff 0.0000, B score cutoff 0.0000, accuracy in training set 0.76871, 23.08% of patients
[18] = class B, A score cutoff 0.0000, B score cutoff 0.0000, accuracy in training set 0.76871, 37.61% of patients
[19] = class B, A score cutoff −0.0406, B score cutoff 0.1067, accuracy in training set 0.79592, 25.64% of patients
[20] = class B, A score cutoff −0.0406, B score cutoff 0.1067, accuracy in training set 0.79592, 41.88% of patients
[21] = class B, A score cutoff −0.1277, B score cutoff 0.3630, accuracy in training set 0.83673, 29.91% of patients
[22] = class B, A score cutoff −0.2664, B score cutoff 0.3179, accuracy in training set 0.82483, 39.32% of patients
[23] = class B, A score cutoff −0.2664, B score cutoff 0.3179, accuracy in training set 0.82483, 41.88% of patients
[24] = VANISH trial, day 28, Full Model, Total
[25] = VANISH trial, day 28, Full Model, subtype A
[26] = VANISH trial, day 28, Full Model, subtype B

`C[C@]12CCC(=O)C=C1CC[C@@H]1[C@@H]2[C@@H](O)C[C@@]2(C)[C@H]1CC[C@]2(O)C(=O)CO` [Hydro, hydrocortisone] was tested, and the Mortality reduction (1-(lower/higher mortality rate), VANISH trial, day 28, Full Model, Total) was 33.0%, the Mortality reduction (1-(lower/higher mortality rate), VANISH trial, day 28, Full Model, subtype A) was 64.6% and the Mortality reduction (1-(lower/higher mortality rate), VANISH trial, day 28, Full Model, subtype B) was 35.2%. For the same molecule, the Mortality reduction (1-(lower/higher mortality rate), VANISH trial, day 28, Full Model, subtype C) was 56.8%, the Mortality reduction (1-(lower/higher mortality rate), VANISH trial, day 28, Full Model, subtypes CA) was 60.6% and the Mortality reduction (1-(lower/higher mortality rate), VANISH trial, day 28, P Model, Total) was 33.0%. It also gave a Mortality reduction (1-(lower/higher mortality rate), VANISH trial, day 28, P Model, subtype A) of 77.6%, a Mortality reduction (1-(lower/higher mortality rate), VANISH trial, day 28, P Model, subtype B) of 9.7% and a Mortality reduction (1-(lower/higher mortality rate), VANISH trial, day 28, P Model, subtypes CA) of 56.5%. It also gave a Mortality reduction (1-(lower/higher mortality rate), VANISH trial, day 28, SS Model, Total) of 33.0%, a Mortality reduction (1-(lower/higher mortality rate), VANISH trial, day 28, SS Model, subtype A) of 86.0% and a Mortality reduction (1-(lower/higher mortality rate), VANISH trial, day 28, SS Model, subtype B) of 20.0%. It also gave a Mortality reduction (1-(lower/higher mortality rate), VANISH trial, day 28, SS Model, subtype C) of 4.0%, a Mortality reduction (1-(lower/higher mortality rate), VANISH trial, day 28, SS Model, subtypes CA) of 42.2% and a Mortality reduction (1-(lower/higher mortality rate), VANISH trial, day 28, SS.B2 Model (SVM), Total) of 33.0%. The Mortality reduction (1-(lower/higher mortality rate), VANISH trial, day 28, SS.B2 Model (SVM), type A (SRS2-like)) was 77.3%, the Mortality reduction (1-(lower/higher mortality rate), VANISH trial, day 28, SS.B2 Model (SVM), type B (SRS1-like)) was 24.2% and the Mortality reduction (VANISH trial, day 28, S Model, subtype C) was “Hydro”. The Mortality reduction (VANISH trial, day 28, S Model, subtypes CA) was “Hydro”, the hydro_alive [1] was 29 and the hydro_dead [1] was 13. For the same molecule, the mr [1] was 3.8%, the hydro_alive [2] was 29 and the hydro_dead [2] was 13. For the same molecule, the mr [2] was 5.8%, the hydro_alive [3] was 29 and the hydro_dead [3] was 13. It also gave a mr [3] of 5.8%, a hydro_alive [4] of 32 and a hydro_dead [4] of 15. It also gave a mr [4] of 12.3%, a hydro_alive [5] of 21 and a hydro_dead [5] of 12. The mr [5] was 3.8%, the hydro_alive [6] was 29 and the hydro_dead [6] was 13. The mr [6] was 5.8%, the hydro_alive [7] was 21 and the hydro_dead [7] was 12. For the same molecule, the mr [7] was 2.1%, the hydro_alive [8] was 29 and the hydro_dead [8] was 13. The mr [8] was 0.5%, the hydro_alive [9] was 25 and the hydro_dead [9] was 11. For the same molecule, the mr [9] was 17.7%, the hydro_alive [10] was 28 and the hydro_dead [10] was 13. The mr [10] was 0.0%, the hydro_alive [11] was 23 and the hydro_dead [11] was 11. It also gave a mr [11] of 15.4%, a hydro_alive [12] of 24 and a hydro_dead [12] of 12. It also gave a mr [12] of 10.3%, a hydro_alive [13] of 7 and a hydro_dead [13] of 9. The mr [13] was 83.8%, the hydro_alive [14] was 7 and the hydro_dead [14] was 9. For the same molecule, the mr [14] was 85.2%, the hydro_alive [15] was 4 and the hydro_dead [15] was 7. The mr [15] was 82.5%, the hydro_alive [16] was 7 and the hydro_dead [16] was 9. The mr [16] was 83.8%, the hydro_alive [17] was 7 and the hydro_dead [17] was 9. It also gave a mr [17] of 83.8%, a hydro_alive [18] of 15 and a hydro_dead [18] of 10. The mr [18] was 86.8%, the hydro_alive [19] was 7 and the hydro_dead [19] was 9. It also gave a mr [19] of 87.3%, a hydro_alive [20] of 15 and a hydro_dead [20] of 10. For the same molecule, the mr [20] was 79.2%, the hydro_alive [21] was 8 and the hydro_dead [21] was 9. It also gave a mr [21] of 79.0%, a mr (class B, A score cutoff −0.1277, B score cutoff 0.3630, accuracy in training set 0.83673, 39.32% of patients) of 83.3% and a hydro_alive [22] of 12. For the same molecule, the hydro_dead [22] was 10, the mr [22] was 81.7% and the hydro_alive [23] was 13. For the same molecule, the hydro_dead [23] was 11, the mr [23] was 82.5% and the “mortality reduction in the placebo group in comparison to the hydrocortisone group” value (VANISH trial, 28-day, Type-A (SRS2-like) patients by SVM classifier on ss.b2 scores) was 75.5%. For the same molecule, the Alive [24] was 36, the Dead [24] was 22 and the Mortality rate [24] was 37.9%. For the same molecule, the Survival rate [24] was 62.1%, the Alive [25] was 9 and the Dead [25] was 8. The Mortality rate [25] was 47.1%, the Survival rate [25] was 52.9% and the Alive [26] was 16. The Dead [26] was 6, the Mortality rate [26] was 27.3% and the Survival rate [26] was 72.7%.
